Assay results: patent US5364944A, “Substituted benzoylbenzene-, biphenyl- and 2-oxazole- alkanoic acid compounds” (American Home Products Corporation, priority 1993, dated 1994)
pIC50: −log10 of the molar value.

Experiments:
[1] = system: 5-lipoxygenase in human whole blood; assay: Inhibition of 5-lipoxygenase in human whole blood (LTB4); format: cell-based
Method in brief: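 Donor whole blood was preincubated with compound (0.1% final DMSO) 10 min at 37° C, then stimulated with 30 μM A23187 for 20 min at 27° C and stopped with EGTA on ice. Plasma LTB4 quantified by RIA or ELISA as ng/10^6 neutrophils; effects given as percent change from control.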

[2] = system: biosynthesis of LTB4 by isolated human neutrophils; assay: Inhibition of LTB4 biosynthesis by isolated human neutrophils (PMN); format: cell-based; details: Neutrophil, A23187 stimulated human PMN, read-out: % Inhibition of LTB4 Synthesis
Method: The ability of the compounds of the invention to inhibit the biosynthesis of LTB4 by isolated human neutrophils is evaluated in the following assay, which is carried out in this manner.
A leukocyte enriched blood sample obtained from a healthy donor is procured by leukophoresis using a Haemonetics model 30+ blood processor (Biological Specialties, Inc., Lansdale, Pa.). The top "platelet-rich" layer is removed after a low speed spin (35×g, 15 min, 25° C.) of the sample. The remaining cell suspension is centrigued (400×g, 10 min, 25° C.) to sediment the remaining cells. The supernatant is discarded and the cell pellet resuspended in 120 ml HBSS (without Ca^++ /Mg++). The cell suspension is subjected to ficoll-hypaque sedimentation (Histopaque 1077, 400×g, 30 min, 25° C.). Contaminating erythrocytes are lysed by hypotonic shock (1 min). The cells are then washed once with 40 ml of HBSS and resuspended with HBS S (without Ca^++ /Mg^++) to a concentration of 2.5×10^7 cells/ml for further use. Greater than 95% purity is obtained as assessed by microscopic examination.
One ml of human PMN (2.5×10^7 cells/ml) is incubated with vehicle or drugs (10 μl) for 10 min at 30° C. After preincubation, an equal volume of HBSS (1 ml) containing 2.4 mM CaCl2, 6 μM calcium ionophore A23187 and 50 μCi[^3 H]-acetate is then incubated at 30° C. for 15 minutes. An aliquot (100 μl) of the reaction mixture is taken out and mixed with 900 μl of 15% ethanol. LTB4 is extracted by using solid phase extraction on reverse phase C18 columns to remove excess [^3 H]-acetate and PAF. The C18 column is prewashed once with 2 ml of ethanol and water. The sample aliquot is acidified with 0.1 N HCl to pH3 before applying to the column. The column is then washed with 2 ml of water followed by 2 ml of 15% ethanol and 2 ml of petroleum ether to remove excess labeled acetate. The sample is eluted with 2 ml of ethyl acetate. The collected samples are dried with nitrogen and resuspended in 0.5 ml RIA buffer. The quantity of LTB4 in the sample is obtained from RIA determination.
Data presented are the mean +/- s.d. of the values relative to control A23187 stimulated cells for each experiment assayed in triplicate. Percent inhibition when used is calculated as:
% Inhibition=100-[(×.div.Control )×100]
Dose response analysis is performed by non-linear regression analysis for curve fitting and IC50 determination.

pIC50 [1]: 5.11
SMILES: CC(C(=O)N(C)O)c1ccc(-c2ccc(OCc3csc(-c4ccccc4)n3)cc2)cc1 (stereo not drawn) [Example 21, N-Hydroxy-N,α-dimethyl-4'-[(2-phenylthiazol-4-yl)methoxy][1,1'-biphenyl]-4-acetamide]
% Inhibition of LTB4 ([1]; at 25 μM): 85% | inhibition at 2.5 µM [2]: 91.2%
